From BindingDB's records for doi:10.7270/Q2C24TWT (Burnham Center For Chemical Genomics, 2010) come the findings set out here.

Molecules are shown by their SMILES.

The target of the assay is G-protein coupled receptor 35 (Homo sapiens, UniProt Q9HC97). The assay can be described thus: inhibitors of PMA/ionomycin-induced NF-kB reporter, SAR follow-up, cell-based, PMA/ionomycin inducer, luciferase, set 2 (AID 2792).
Sequence of G-protein coupled receptor 35 (Q9HC97 whole entry): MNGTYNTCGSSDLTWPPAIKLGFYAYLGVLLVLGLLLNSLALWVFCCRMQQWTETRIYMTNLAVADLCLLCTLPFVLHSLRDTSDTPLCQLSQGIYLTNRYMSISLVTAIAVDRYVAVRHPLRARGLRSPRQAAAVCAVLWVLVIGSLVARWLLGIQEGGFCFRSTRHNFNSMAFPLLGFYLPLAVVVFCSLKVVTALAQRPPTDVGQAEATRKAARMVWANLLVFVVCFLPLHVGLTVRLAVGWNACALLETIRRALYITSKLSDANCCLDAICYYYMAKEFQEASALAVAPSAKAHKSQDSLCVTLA

For the molecule `CCCn1c(SCC(=O)Nc2nc3c(s2)CCCC3)nc2c1c(=O)n(C)c(=O)n2C` [2-(1,3-Dimethyl-2,6-dioxo-7-propyl-2,3,6,7-tetrahydro-1H-purin-8-ylsulfanyl)-N-(4,5,6,7-tetrahydro-benzothiazol-2-yl)-acetamide], the midpoint of inhibition, the IC50, lay at 17.8 µM.
In the case of `CCCCn1c(CN2CCN(c3cccc(Cl)c3)CC2)nc2c1c(=O)n(C)c(=O)n2C` [MLS-0004183.0001] it was 3.51 µM.

A word on the IC50: it is the concentration that inhibits the measured activity by half.
